In patent US20070116822A1, “HIGH-POTENCY SWEETENER COMPOSITION WITH SAPONIN AND COMPOSITIONS SWEETENED THEREWITH” (THE COCA-COLA COMPANY, priority 2005, published 2007):

Assays:
[1] = Sensory evaluation of sweetness linger by a panel of experts; type: in vivo; set-up: key: 0=no sweetness linger; 1=very slight sweetness linger; 2=slight sweetness linger; 3=moderate sweetness linger; 4=moderately high sweetness linger; 5=high sweetness linger; conditions: for Sweetness linger rating: scale 0-5; for Sweetness Linger rating (defined scale anchors): rating defined for the protocol, REBA control sample 500 ppm
Method: As used herein, the phrases “sugar-like characteristic,” “sugar-like taste,” “sugar-like sweet,” “sugary,” and “sugar-like” are synonymous. […] These characteristics are dimensions in which the taste of sucrose is different from the tastes of natural and synthetic high-potency sweeteners. Whether or not a characteristic is more sugar-like is determined by expert sensory panel assessments of sugar and compositions comprising at least one natural and/or synthetic high-potency sweetener, both with and without a sweet taste improving composition. Such assessments quantify similarities of the characteristics of compositions comprising at least one natural and/or synthetic high-potency sweetener, both with and without a sweet taste improving composition, with those comprising sugar. Suitable procedures for determining whether a composition has a more sugar-like taste are well known in the art.
In a particular embodiment, a panel of assessors is used to measure the reduction of sweetness linger. Briefly described, a panel of assessors (generally 8 to 12 individuals) is trained to evaluate sweetness perception and measure sweetness at several time points from when the sample is initially taken into the mouth until 3 minutes after it has been expectorated. […] A decrease in score for a time point measured after the sample has cleared the mouth indicates there has been a reduction in sweetness perception.
The panel of assessors may be trained using procedures well known to those of ordinary skill in the art. In a particular embodiment, the panel of assessors may be trained using the Spectrum™ Descriptive Analysis Method (Meilgaard et al, Sensory Evaluation Techniques, 3rd edition, Chapter 11). Desirably, the focus of training should be the recognition of and the measure of the basic tastes; specifically, sweet. In order to ensure accuracy and reproducibility of results, each assessor should repeat the measure of the reduction of sweetness linger about three to about five times per sample, taking at least a five minute break between each repetition and/or sample and rinsing well with water to clear the mouth.
Generally, the method of measuring sweetness comprises taking a 10 mL sample into the mouth, holding the sample in the mouth for 5 seconds and gently swirling the sample in the mouth, rating the sweetness intensity perceived at 5 seconds, expectorating the sample (without swallowing following expectorating the sample), rinsing with one mouthful of water (e.g., vigorously moving water in mouth as if with mouth wash) and expectorating the rinse water, rating the sweetness intensity perceived immediately upon expectorating the rinse water, waiting 45 seconds and, while wating those 45 seconds, identifying the time of maximum perceived sweetness intensity and rating the sweetness intensity at that time (moving the mouth normally and swallowing as needed), rating the sweetness intensity after another […], rating the sweetness intensity after another 60 seconds (cumulative 120 seconds after rinse), and rating the sweetness intensity after still another 60 seconds (cumulative 180 seconds after rinse). Between samples take a 5 minute break, rinsing well with water to clear the mouth.
Sensory evaluation of the samples prepared in Example Set G was carried out under the following protocol, similar to that described hereinabove. In this test protocol, none of the samples were swallowed. All samples were expectorated and the mouth was rinsed with water after the tasting. Immediately upon sensing maximal sweetness, the sample was expectorated, the mouth was rinsed with water and the rate of sweetness decay (“Sweetness Linger”) was measured, where attention was focused on the sweetness 3-4 min after the water rinse. After sample tasting was complete, a salty oyster cracker was chewed followed by a water rinse, and at least 5 minutes followed before tasting the next sample. […]

[2] = type: physicochemical
Method: A solution of rebaudioside A (>97% pure by HPLC ) was prepared in double distilled water (12.5 gm in 50 mL, 25% concentration) by stirring the mixture at 40° C. for 5 minutes. An amorphous form of rebaudioside A was formed by immediately using the clear solution for spray drying with the Lab-Plant spray drier SD-04 instrument (Lab-Plant Ltd., West Yorkshire, U.K.). The solution was fed through the feed pump into the nozzle atomizer which atomized it into a spray of droplets with the help of a constant flow of nitrogen/air. […] This dry powder (11-12 g, H2O 6.74%) was discharged continuously from the drying chamber and was collected in a bottle.

[3] = Example Set G, citric acid/potassium citrate composition equivalent to diet lemon-lime beverage, sweetness 3-4 min after water rinse
[4] = Example Set H, carbon-treated water, phosphoric acid (75%) to pH 2.4-2.5, protocol of Example Set G

Molecule	Sweetness linger rating [1, 3]	Sweetness linger rating [1, 4]	Sweetness Linger rating (defined scale anchors) [1]	Solubility in water at room temperature [2] [%]
OC[C@H]1O[C@@](CO)(O[C@H]2O[C@H](CO)[C@@H](O)[C@H](O)[C@H]2O)[C@@H](O)[C@@H]1O [sugar, sucrose]	0	0	0	
rebaudioside A	5	5	5	
rebaudioside A [Form 4]				> 35.0
